From patent publication US9204653B2, “5-fluoro pyrimidine derivatives” (DOW AGROSCIENCES LLC, priority 2008, dated 2015)
Like-named read-outs stand apart in the source and are kept apart here.

System: Mycosphaerella graminicola; Anamorph: Septoria tritici; Bayer Code SEPTTR
Assay: Leaf blotch of wheat, foliar fungicide treatment, one day protectant (1DP) or three day curative (3DC)
Type: in vivo, Septoria tritici on wheat plants (variety Yuma)
Settings: Zymoseptoria tritici
[1] = 24 h, one day protectant (1DP), 25 ppm, rating of percent disease control, read-out: SETTTR 1DP 25 ppm
[2] = 24 h, one day protectant (1DP), rating of percent disease control, read-out: SEPTTR 1DP 100 ppm
[3] = 72 h, three day curative (3DC), 25 ppm, rating of percent disease control, read-out: SEPTTR 3DC 25 ppm
[4] = 72 h, three day curative (3DC), rating of percent disease control, read-out: SEPTTR 3DC 100 ppm
[5] = 24 h, one day protectant, 25 ppm, rating of percent disease control, read-out: SETTTR 1DP 25 ppm
[6] = 24 h, one day protectant, rating of percent disease control, read-out: SEPTTR 1DP 100 ppm
[7] = 72 h, three day curative, 25 ppm, rating of percent disease control, read-out: SEPTTR 3DC 25 ppm
[8] = 72 h, three day curative, rating of percent disease control, read-out: SEPTTR 3DC 100 ppm
[9] = 24 h, one day protectant (1DP), 25 ppm (first 1DP column), percent control rating, read-out: SETTTR 1DP 25 ppm
[10] = 24 h, one day protectant (1DP), 25 ppm as printed (second 1DP column), percent control rating, read-out: SETTTR 1DP 25 ppm
[11] = 72 h, three day curative (3DC), 25 ppm, percent control rating, read-out: SEPTTR 3DC 25 ppm
[12] = 72 h, three day curative (3DC), percent control rating, read-out: SEPTTR 3DC 100 ppm
[13] = 24 h, % disease control rating, one day protectant
[14] = 24 h, one day protectant (1DP), 25 ppm, percent disease control rating, read-out: SETTTR 1DP 25 ppm
[15] = 24 h, one day protectant (1DP), percent disease control rating, read-out: SEPTTR 1DP 100 ppm
[16] = 72 h, three day curative (3DC), 25 ppm, percent disease control rating, read-out: SEPTTR 3DC 25 ppm
[17] = 72 h, three day curative (3DC), percent disease control rating, read-out: SEPTTR 3DC 100 ppm

O=C(Nc1ccccc1F)Nc1nc(OCc2ccccc2)ncc1F [Compound 291]
pest or weed control at 25 ppm [1]: 0 to 25%
pest or weed control at 100 ppm [2]: 0 to 25%
pest or weed control at 25 ppm [3]: 0 to 25%
pest or weed control at 100 ppm [4]: 26 to 50%

O=[N+]([O-])c1ccccc1SNc1nc(OCc2cccc(C(F)(F)F)c2F)ncc1F [Compound 758]
pest or weed control at 25 ppm [1]: 26 to 50%
pest or weed control at 100 ppm [2]: 76 to 100%
pest or weed control at 25 ppm [3]: 26 to 50%
pest or weed control at 100 ppm [4]: 51 to 75%

Cc1ccc(COc2ncc(F)c(NSc3ccccc3[N+](=O)[O-])n2)cc1 [Compound 443]
pest or weed control at 25 ppm [1]: 76 to 100%
pest or weed control at 100 ppm [2]: 76 to 100%
pest or weed control at 25 ppm [3]: 26 to 50%
pest or weed control at 100 ppm [4]: 26 to 50%

Nc1nc(OCc2ccc(Cl)cc2)ncc1F [Compound 689]
pest or weed control at 25 ppm [5]: 76 to 100%
pest or weed control at 100 ppm [6]: 76 to 100%
pest or weed control at 25 ppm [7]: 76 to 100%
pest or weed control at 100 ppm [8]: 76 to 100%

O=S(=O)(Nc1nc(O)ncc1F)c1ccccc1Cl [Compound 1103]
pest or weed control at 25 ppm [9]: 0 to 25%
pest or weed control at 25 ppm [10]: 0 to 25%
pest or weed control at 25 ppm [11]: 0 to 25%
pest or weed control at 100 ppm [12]: 0 to 25%

COCCOC(=O)Nc1nc(OCc2cccc(OC)c2)ncc1F [Compound 459]
pest or weed control at 25 ppm [1]: 51 to 75%
pest or weed control at 100 ppm [2]: 76 to 100%
pest or weed control at 25 ppm [3]: 76 to 100%
pest or weed control at 100 ppm [4]: 76 to 100%

Cc1cccc(COc2ncc(F)c(N)n2)c1 [Compound 188]
pest or weed control at 25 ppm [1]: 76 to 100%
pest or weed control at 100 ppm [2]: 76 to 100%
pest or weed control at 25 ppm [3]: 76 to 100%
pest or weed control at 100 ppm [4]: 76 to 100%

N#Cc1cccc(COc2ncc(F)c(NSc3ccccc3[N+](=O)[O-])n2)c1 [Compound 612]
pest or weed control at 25 ppm [5]: 76 to 100%
pest or weed control at 100 ppm [6]: 76 to 100%
pest or weed control at 25 ppm [7]: 76 to 100%
pest or weed control at 100 ppm [8]: 76 to 100%

Nc1nc(OCc2ccc(Cl)nc2)ncc1F [Compound 644]
pest or weed control at 25 ppm [5]: 76 to 100%
pest or weed control at 100 ppm [6]: 76 to 100%
pest or weed control at 25 ppm [7]: 76 to 100%
pest or weed control at 100 ppm [8]: 76 to 100%

Cc1ccc(COc2ncc(F)c(NC(=O)OCc3ccccc3)n2)cc1 [Compound 613]
pest or weed control at 25 ppm [5]: 76 to 100%
pest or weed control at 100 ppm [6]: 76 to 100%
pest or weed control at 25 ppm [7]: 76 to 100%
pest or weed control at 100 ppm [8]: 76 to 100%

Cc1ccc(COc2ncc(F)c(NC3CC3)n2)cc1 [Compound 881]
pest or weed control at 50 ppm (24 h, % disease control rating, one day protectant, 50 ppm): 76 to 100%
pest or weed control at 200 ppm [13]: 76 to 100%

CC(C)(C)NNc1nc(O)ncc1F [Compound 1092]
pest or weed control at 25 ppm [9]: 0 to 25%
pest or weed control at 25 ppm [10]: 26 to 50%
pest or weed control at 25 ppm [11]: 0 to 25%
pest or weed control at 100 ppm [12]: 26 to 50%

Nc1nc(OCCCC2CCCC2)ncc1F [Compound 106]
pest or weed control at 25 ppm [14]: 0 to 25%
pest or weed control at 100 ppm [15]: 0 to 25%
pest or weed control at 25 ppm [16]: 0 to 25%
pest or weed control at 100 ppm [17]: 26 to 50%

O=C(Nc1nc(OCc2ccc(F)cc2)ncc1F)c1snc(Cl)c1Cl [Compound 12, 3,4-Dichloroisothiazole-5-carboxylic acid [5-fluoro-2-(4-fluorobenzyl-oxy)pyrimidin-4-yl]amide]
pest or weed control at 25 ppm [14]: 76 to 100%
pest or weed control at 100 ppm [15]: 76 to 100%
pest or weed control at 25 ppm [16]: 76 to 100%
pest or weed control at 100 ppm [17]: 76 to 100%

COc1cccc(COc2ncc(F)c(NC3CC3)n2)c1 [Compound 812]
pest or weed control at 200 ppm [13]: 76 to 100%

C=CCOC(=O)Nc1nc(OCc2ccccc2)ncc1F [Compound 983]
pest or weed control at 25 ppm [9]: 76 to 100%
pest or weed control at 25 ppm [10]: 76 to 100%
pest or weed control at 25 ppm [11]: 76 to 100%
pest or weed control at 100 ppm [12]: 76 to 100%

Cc1ccc(COc2ncc(F)c(NNc3ccccc3F)n2)cc1 [Compound 1039]
pest or weed control at 25 ppm [9]: 0 to 25%
pest or weed control at 25 ppm [10]: 0 to 25%
pest or weed control at 25 ppm [11]: 0 to 25%
pest or weed control at 100 ppm [12]: 0 to 25%

Cc1cccc(COc2ncc(F)c(N)n2)c1C [Compound 602]
pest or weed control at 25 ppm [5]: 0 to 25%
pest or weed control at 100 ppm [6]: 51 to 75%
pest or weed control at 25 ppm [7]: 0 to 25%
pest or weed control at 100 ppm [8]: 0 to 25%

Cc1ccc(COc2ncc(F)c(N(N)C3CCCCC3)n2)cc1 [Compound 755]
pest or weed control at 25 ppm [1]: 26 to 50%
pest or weed control at 100 ppm [2]: 26 to 50%
pest or weed control at 25 ppm [3]: 0 to 25%
pest or weed control at 100 ppm [4]: 0 to 25%

COCCOc1ncc(F)c(N)n1 [Compound 172]
pest or weed control at 25 ppm [14]: 0 to 25%
pest or weed control at 100 ppm [15]: 0 to 25%
pest or weed control at 25 ppm [16]: 0 to 25%
pest or weed control at 100 ppm [17]: 0 to 25%
